Read-outs that look alike come from different tables or passages of the source. Bounds are passed on as bounds.

In one data set the target is rhSYK (Homo sapiens (Human), UniProt P43405). The data set can be described thus: biochemical.
Data set [1] has as its target T1, recombinant human SYK (GST-hSYK fusion protein) (Homo sapiens (Human), UniProt P43405). The data set can be described thus: biochemical.
Text: (§1) Homogeneous Time-Resolved Fluorescence (HTRF) Assay for the Recombinant Human SYK Enzyme:
For data set [2] the following is noted: phase II clinical trial, allergic rhinitis; cited from earlier work.
Another data set has as its system PGD2. The note with it: dosed intranasally, phase I/II study, allergic rhinitis; cited from earlier work.
The target in data set [3] is T1, recombinant human SYK (GST-hSYK fusion protein).
Text: as §1
[4] abbreviates: read-out: rhSYK Activity, Table 113C.
Setting [5] is: read-out: rhSYK Activity, Table 119, HTRF assay, IC50 class symbols.

In turn, `O=C(O)[C@H]1CC[C@H](c2ncc(-c3cccc(Nc4nccc(C(F)(F)F)n4)c3)s2)CC1` [Example 22, Trans-4-[5-(3-{[4-(trifluoromethyl)pyrimidin-2-yl]amino}phenyl)-1,3-thiazol-2-yl]cyclohexanecarboxylic acid] came in with an IC50 on rhSYK of less than 100 nM.

As for `O=C(NC1CC1)[C@H]1CC[C@H](c2ncc(-c3cccc(Nc4nccc(C(F)(F)F)n4)c3)s2)CC1` [Example 23, trans-N-cyclopropyl-4-[5-(3-{[4-(trifluoromethyl)pyrimidin-2-yl]amino}phenyl)-1,3-thiazol-2-yl]cyclohexanecarboxamide], the IC50 on rhSYK is less than 100 nM.

For `Cc1cc(Nc2nccc(C(F)(F)F)n2)cc(-c2cnc(C3(O)CCC(NC(=O)C4CCCOC4)CC3)s2)c1` (stereo not drawn) [Example 54E-18], in data set [1], the IC50 is less than 100 nM. Consider `CC(C)(c1ncc(-c2cc(F)cc(Nc3nccc(C(F)(F)F)n3)c2)s1)S(N)(=O)=O` [2-[5-(3-fluoro-5-{[4-(trifluoromethyl)pyrimidin-2-yl]amino}phenyl)-1,3-thiazol-2-yl]propane-2-sulfonamide], for which the IC50 in data set [1] was 818 nM. As for `CC(=O)Nc1cc(Nc2nccc(OC3CCN(C(C)=O)CC3)n2)cc(-c2cnc(C3(O)CCC3)s2)c1` [Example 109-3], the IC50 in data set [1] is less than 100 nM. As for `Oc1cccc(Nc2ncc(F)c(Nc3cccc(O)c3)n2)c1` [Example R112], the efficacy versus placebo result in data set [2] is reported as “lack of efficacy”. Moreover, in the data set with PGD2, the PGD2 entry is on record as “statistically significant decrease” and the clinical safety result is reported as “safe across a range of indicators”.

Turning to `CCNC(=O)Nc1cc(Nc2nccc(C(F)(F)F)n2)cc(-c2cnc(C3CCC(C(N)=O)CC3)s2)c1` (single isomer, unassigned) [Example 20(1), 4-[5-(3-[(ethylcarbamoyl)amino]-5-{[4-(trifluoromethyl)pyrimidin-2-yl]amino}phenyl)-1,3-thiazol-2-yl]cyclohexanecarboxamide], the IC50 against rhSYK was less than 100 nM. In the case of `COc1ccnc(Nc2cc(C)cc(-c3cnc([C@]4(F)CC[C@@H](C(=O)O)CC4)s3)c2)n1` [Example 113D-13], in data set [1], the IC50 is less than 100 nM. Still for that read-out and setting: the result for `CC(C)(C)OC(=O)N1CC(Oc2ccnc(Nc3cc(N)cc(-c4cnc(C5(O)CCC5)s4)c3)n2)C1` [Example 109-10] reads 100 to 1000 nM; that for `Cc1cc(Nc2nccc(C(F)(F)F)n2)cc(-c2cnc(C3CCC(C(N)=O)C(C)(C)C3)s2)c1` (single isomer, unassigned) [154(b), 2,2-Dimethyl-4-[5-(3-methyl-5-{[4-(trifluoromethyl)pyrimidin-2-yl]amino}phenyl)-1,3-thiazol-2-yl]cyclohexanecarboxamide], 100 to 1000 nM; that for `Cc1cc(Nc2nccc(C(F)(F)F)n2)cc(-c2cnc([C@@](O)(CO)c3ccc(C(=O)O)cc3)s2)c1` [145(B), (S)4-{1,2-dihydroxy-1-[5-(3-methyl-5-{[4-(trifluoromethyl)pyrimidin-2-yl]amino}phenyl)-1,3-thiazol-2-yl]ethyl}benzoic acid], less than 100 nM. Consider `COC(=O)C(C)(C)Cc1ncc(-c2cc(C)cc(Nc3nccc(C(F)(F)F)n3)c2)s1` [Example 77, Methyl 2,2-dimethyl-3-[5-(3-methyl-5-{[4-(trifluoromethyl)pyrimidin-2-yl]amino}phenyl)-1,3-thiazol-2-yl]propanoate], for which, in data set [1], the IC50 is less than 100 nM. With `Cc1cc(Nc2nccc(C(C)(C)C)n2)cc(-c2cnc(C3(O)CCNC(=O)CC3)s2)c1` (stereo not drawn) [113C-9], the IC50 in data set [3] (setting [4]) was less than 100 nM. Regarding `CCCSc1ccnc(Nc2cc(C)cc(-c3cnc(C4(O)CCC4)s3)c2)n1` [Example 108A-42], the IC50 in data set [3] (read-out: rhSYK activity) was less than 100 nM.

With `CCOC(=O)C1CCC(c2ncc(-c3cc(C)cc(Nc4nccc(C(F)(F)F)n4)c3)s2)CC1` (stereo not drawn) [Example 36A-2], in data set [3] (read-out: rhSYK Activity, Table 36A), the IC50 lay within 100 to 1000 nM. `Cc1cc(Nc2nccc(C)n2)cc(-c2cnc(C3(O)CCC(C(=O)NCCCN4CCCC4=O)C(C)C3)s2)c1` (stereo not drawn) [Example 119-116]: in data set [3] (setting [5]), the IC50 was less than 100 nM.

As for `Cc1cc(Nc2nccc(C(F)(F)F)n2)cc(-c2cnc(C3(O)CCC(C(=O)NCc4ccc(S(N)(=O)=O)cc4)CC3)s2)c1` (stereo not drawn) [Example 119-104], the IC50 in data set [3] (setting [5]) is less than 100 nM. Regarding `Cc1cc(Nc2nccc(OC3CCNCC3)n2)cc(-c2cnc(C3(NC(=O)NC(N)=O)CCC3)s2)c1` [Example 65-5], in data set [3] (read-out: rhSYK activity), the IC50 was less than 100 nM. Turning to `Cc1cc(Nc2nccc(C(F)(F)F)n2)cc(-c2cnc(C3(NS(=O)(=O)C(F)(F)F)COC3)s2)c1` [Example 61B-6], the IC50 in data set [3] (read-out: rhSYK activity) was less than 100 nM. For `Cc1cc(Nc2nccc(C(F)(F)F)n2)cc(-c2cnc(C3(O)CCC(C(=O)NCCN4CCCC4=O)CC3)s2)c1` (stereo not drawn) [Example 119-78], the IC50 in data set [3] (setting [5]) was less than 100 nM. As to `O=C1CCC(O)(c2ncc(-c3cccc(Nc4nccc(C(F)(F)F)n4)c3)s2)CCN1` (stereo not drawn) [113C-8], the IC50 in data set [3] (setting [4]) was less than 100 nM. Take `Cc1cc(Nc2ncc(F)c(C)n2)cc(-c2cnc(C3(O)CCNC(=O)CC3)s2)c1` (stereo not drawn) [113C-1]: the IC50 in data set [3] (setting [4]) is less than 100 nM.

Source of the values: US8759366B2, “Aminopyrimidines as SYK inhibitors” (Merck Sharp & Dohme Corp., priority 2009, dated 2014).
